What was measured:
[1] = tested on: DSS-induced colitis in C57BL/6 mice; experiment: DSS-induced colitis murine study, Example 1A (endoscopy, stool consistency, body weight); type: in vivo; details: for mean endoscopy score: INS1007 1 mg/kg PO BID Day -7 to 20, scale 0-4
Description: Mice: Seventy-nine (79) male C57BL/6 mice with an average starting body weight (SEM) of 23.32 g (+1.53 g) were obtained from Charles River Laboratories (Wilmington, Mass.). Animals were acclimatized prior to the study. During this period, the animals were observed daily in order to reject any that presented in poor condition. Animals were fed with 5053 sterile rodent diet and water was provided ad libitum.
INS1007 Solutions: INS1007 was diluted with 0.5% hydroxypropylmethylcellulose in citrate buffer w/0.1% Tween 80 (pH 3.0). Solutions were stored at 4° C. INS1007 solutions were discarded after 3 days and fresh solutions were prepared.
Anti-p40 mAb solution: Anti-mouse IL-12 p40 (Clone: C17.8) obtained from BioXCell (Cat #: BE0051) was diluted with phosphate buffered saline. Solutions were stored at 4° C. Anti-mouse IL-12 p40 solutions were discarded after 7 days and fresh solutions were prepared.
DSS Induction Solution: Dextran sulfate sodium salt obtained from MP Biomedical (Cat #02160110) was diluted with water. DSS solutions were stored at room temperature.
Groups 1-4 were negative controls; groups 5-7 were treated with INS 1007 and Group 8 was treated with Anti-p40 mAb. ^i The dosing protocol for the Anti-p40 antibody is not shown in FIG. 1.
The study included three phases: a pre-treatment period (Veh/1007 Pretx in FIG. 1); DSS-induction period (DSS in FIG. 1) and a treatment period (Veh/1007 in FIG. 1). Colitis was induced in Groups 3-8 by exposure to 3% DSS Induction Solution from Day 0 to Day 5. Animals in Groups 2 and 4-7 were dosed via oral gavage (PO) twice daily (BID) from Days −7 to 20 with INS1007 Solution or vehicle, as indicated in Table 1. Animals in Group 8 were dosed via intraperitoneal (IP) injection once every third day (Q3D) from Day 0 to 18 with Anti-p40 mAb solution.
All animals were weighed daily and assessed visually for the presence of diarrhea and/or bloody stool at the time of dosing. Each mouse, under isoflurane anesthesia, underwent video endoscopy on Days 10, 14, & 21 using a small animal endoscope (Karl Storz Endoskope, Germany), to assess colitis severity. Colitis severity was scored using a 0-4 scale (0=normal; 1=loss of vascularity; 2=loss of vascularity and friability; 3=friability and erosions; 4=ulcerations and bleeding). Stool consistency was scored during endoscopy using the parameters defined in Table 2. Following endoscopy on day 21, all animals from each treatment group were sacrificed.

neutrophil elastase (NE) = experiment: Bone marrow neutrophil elastase (NE) activity in lysates from mice of Example 1A; type: in vivo, C57BL/6 mice; details: vs vehicle treated control group
Description: Following euthanasia, bone marrow (from both femurs and tibias) were collected, lysed, and then snap frozen. The frozen tissue was stored at −80° C.
Bone Marrow Neutrophil Activity: The ability of INS1007 to reduce neutrophil activation in DSS-induced colitis in C57BL/6 mice was evaluated. The neutrophil activity of bone marrow extracts taken from the euthanized mice of Example 1A was observed.
All animals from Example 1A had both femurs and tibias removed and bone marrow was aspirated out with ice-cold using Roswell Park Memorial Institute (RPMI) buffer. Cell pellets were collected after red blood cell lysis and wash with PBS. […]
For neutrophil elastase (NE) activity assay, bone marrow cell lysates were added to 96-well black plate and incubated for 15 minutes in the presence of DMSO or NE inhibitor (Abcam, Cat #ab142154). […] The resulting fluorescence was measured at 350 nm excitation and 450 nm emission in a kinetic mode by reading every 5 minutes for up to 3 hours at 37° C. The fluorescence was read using a BioTek Synergy plate reader. The reaction rate was calculated with the initial slopes of the linear range and a standard curve for the natural mouse elastase amounts were plotted against their slopes. The net NE activity (in the unit of natural mouse elastase amount) by subtracting the NE inhibitor control wells from non-inhibited well were calculated based on the standard curve.

Cn1c(=O)oc2ccc(-c3ccc(C[C@@H](C#N)NC(=O)[C@@H]4CNCCCO4)cc3)cc21 [INS1007, (2S)—N-{(1S)-1-cyano-2-[4-(3-methyl-2-oxo-2,3-dihydro-1,3-benzoxazol-5-yl)phenyl]ethyl}-1,4-oxazepane-2-carboxamide]
mean endoscopy score ([1]; Day 10, DSS-Vehicle control 2.67): 2.25 | mean endoscopy score ([1]; Day 14, DSS-Vehicle control 2.79): 1.92 | mean endoscopy score ([1]; Day 21, DSS-Vehicle control 2.36): 2.08 | weight loss (percentage of starting weight on Day 0) ([1]; INS1007 PO BID, vs DSS-vehicle control (peak loss -18.46% Day 11)): modestly attenuated weight loss | stool consistency scores ([1]; INS1007 at all three concentrations (0.1, 1, 10 mg/kg PO BID), Days 10, 14, 21, particularly Days 14 and 21): modest decreases in stool scores | bone marrow neutrophil activity (NE activity) (neutrophil elastase (NE); INS1007 1 mg/kg PO BID): significantly reduced | bone marrow neutrophil activity (NE activity) (neutrophil elastase (NE); INS1007 10 mg/kg PO BID): significantly reduced

— patent publication US20210252015A1, “CERTAIN (2S)-N-[(1S)-1-CYANO-2-PHENYLETHYL]-1,4-OXAZEPANE-2-CARBOXAMIDES FOR TREATING INFLAMMATORY BOWEL DISEASE” (Insmed Incorporated, priority 2018, published 2021)
